In US10273233B2, “Inhibitors of influenza viruses replication” (Vertex Pharmaceuticals Incorporated, priority 2015, dated 2019):
Where a name gives a salt, the structure may show the parent alone. Read-outs that look alike come from different tables or passages of the source.

Assays:
influenza A = assay: Influenza A mouse model, Compound (1) with or without oseltamivir; type: in vivo, Mice
Method: Referring to FIG. 32, the potential for a positive therapeutic interaction between Compound (1) and oseltamivir against influenza A was explored in the mouse model. Mice were challenged with influenza A and dosed with vehicle (10 mL/kg 0.5% MC) or Compound (1) at 1, 3, 10, or 30 mg/kg BID alone, or in combination with 10 mg/kg BID oseltamivir. Therapy was started 48 hours post influenza A infection and continued for 10 days. All of the vehicle-treated controls succumbed to disease by study day 8 (Table 21).

| SMILES | Final Form (SGF (pH --1.5), 5 min) | concentration, two-stage in vitro dissolution (SGF (pH --1.5), 5 min) | Final Form (SGF (pH --1.5), 15 min) | concentration, two-stage in vitro dissolution (SGF (pH --1.5), 15 min) | Final Form (SGF (pH --1.5), 30 min) | concentration, two-stage in vitro dissolution (SGF (pH --1.5), 30 min) | Final Form (SGF (pH --1.5), 60 min) | concentration, two-stage in vitro dissolution (SGF (pH --1.5), 60 min) | Final Form (SIF (no pH Adjustment), 75 min) | concentration, two-stage in vitro dissolution (SIF (no pH Adjustment), 75 min) | Final Form (SIF (no pH Adjustment), 90 min) | concentration, two-stage in vitro dissolution (SIF (no pH Adjustment), 90 min) | Final Form (SIF (pH --6.4), 105 min) | concentration, two-stage in vitro dissolution (SIF (pH --6.4), 105 min) | Final Form (SIF (pH --6.4), 120 min) | concentration, two-stage in vitro dissolution (SIF (pH --6.4), 120 min) | Final Form (SIF (pH --6.4), 150 min) | concentration, two-stage in vitro dissolution (SIF (pH --6.4), 150 min) | Final Form (SIF (pH --6.4), 180 min) | concentration, two-stage in vitro dissolution (SIF (pH --6.4), 180 min) | other results |
| --- | --- | --- | --- | --- | --- | --- | --- | --- | --- | --- | --- | --- | --- | --- | --- | --- | --- | --- | --- | --- | --- |
| CC(C)(C)[C@@H](CC(=O)O)Nc1nc(-c2c[nH]c3ncc(F)cc23)ncc1F [H2SO4 Salt] | H2SO4 | 0.407 | H2SO4 | 0.407 | H2SO4 | 0.417 | H2SO4 | 0.399 | H2 | 0.242 | H2 | 0.236 | H2 | 1.373 | H2 | 1.284 | H2 | 0.396 | H2 | 0.652 | Final Form (SIF (pH --6.4), 240 min): H2; concentration, two-stage in vitro dissolution (SIF (pH --6.4), 240 min): 0.789 |
| CCOC(=O)C1=C[C@@H](OC(CC)CC)[C@H](NC(C)=O)[C@@H](N)C1 [Oseltamivir, oseltamivir, reference compound] | – | – | – | – | – | – | – | – | – | – | – | – | – | – | – | – | – | – | – | – | Percent Survival (influenza A; Oseltamivir 10 mg/kg BID alone, started +48 hours after infection, 10 days): 0%; protection from mortality (influenza A; administered alone: Compound (1) 1 mg/kg BID, oseltamivir 10 mg/kg): failed to protect mice from influenza infection |
| CC(C)(C)[C@@H](CC(=O)O)Nc1nc(-c2c[nH]c3ncc(F)cc23)ncc1F [FF Lot 7] | H3 | 2.053 | H3 | 1.278 | H3 | 2.031 | H3 | 2.40 | H3 | 0.163 | H3 | 0.148 | H3 | 1.588 | H3 | 1.534 | H3 | 1.058 | H3 | 0.971 | Final Form (SIF (pH --6.4), 240 min): H3; concentration, two-stage in vitro dissolution (SIF (pH --6.4), 240 min): 1.497 |
